Drawing on US20230279016A1, “Tetrahydropyrazolopyrimidines and Related Analogs for Inhibiting YAP/TAZ-TEAD” (THE KATHOLIEKE UNIVERSITEIT LEUVEN, priority 2021, published 2023), this text covers EC50 for 32 compounds.

SMILES strings stand for the structures.

The subject of the first experiment is YAP/TAZ-TEAD transcription. The experiment can be described thus: Reporter gene assay for measuring the inhibition of YAP/TAZ-TEAD transcription (TEAD-responsive element luciferase reporter in Hek293T cells). Particulars: Hek293T cells transiently transfected with TEAD-responsive element luciferase reporter, 24 hours incubation. The format is cell-based. The procedure: Hek293T cells are cultured in DMEM supplemented with 10% fetal bovine serum, Sodium pyruvate, Sodium bicarbonate, L-glutamine. The cells are harvested and transiently transfected with TEAD-responsive element luciferase reporter. Transfected cells are plated in 384-wells plate containing pre-diluted compounds. After 24 hours incubation at 37° C./5%CO2, assay plates were cooled down to RT and levelled to an equal volume per well, prior to the addition of 25 uL luciferase substrate SteadyLite (Perkin Elmer)/well. The plate was shaken for 10 min at 600 rpm, centrifuged for 1min at 500 rpm and measured with an Envision reader (PerkinElmer). The amount of relative light units produced by the TEAD reporter is used to calculated percent of inhibition.
The percent of reporter inhibition was calculated in the presence of a positive control inhibitor (100% inhibition) versus a condition with the presence of the vehicle basal activity of the reporter (0% inhibition). The ability of a test compound to inhibit this activity was determined as:
Percentage inhibition=[1-((RLU determined in the presence of vehicle—RLU determined for sample with test compound present) divided by (RLU determined in the presence of vehicle — RLU determined for sample with positive control inhibitor))] * 100
The activities of the example compounds tested are depicted in the table below. The activity ranges A, B and C refer to EC50 values in the reporter gene assay as described as follows: “A”: EC50 <1 μM; “B” : 1 μM≤EC50≤20 μM and “C” : EC50>20 μM, NT=not tested.
By EC50 is commonly meant the concentration at which the effect is half-maximal. Low values mean higher potency in that assay, high ones lower potency in that assay. With `C=CC(=O)NCC1CN(c2ccc(C(F)F)nc2)c2ccnn2C1` (centres unmarked) [Cpd. No. 010, N-((4-(6-(difluoromethyl)pyridin-3-yl)-4,5,6,7-tetrahydropyrazolo[1,5-a]pyrimidin-6-yl)methyl)acrylamide], the EC50 is < 1 µM.
Same read-out and setting: the result for `C=CC(=O)NCC1CN(c2ccc(-c3ccccc3)cc2)c2ccnn2C1` (centres unmarked) [Cpd. No. 017, N-((4-([1,1′-biphenyl]-4-yl)-4,5,6,7-tetrahydropyrazolo[1,5-a]pyrimidin-6-yl)methyl)acrylamide] reads 1 to 20 µM.
Still for that read-out and setting: then `CCC(=O)NCC1CN(c2ccc(C(F)(F)F)cc2)c2ccnn2C1` (centres unmarked) [Cpd. No. 028, N-((4-(4-(trifluoromethyl)phenyl)-4,5,6,7-tetrahydropyrazolo[1,5-a]pyrimidin-6-yl)methyl)propionamide], with < 1 µM; and `C=CC(=O)NCC1CN(S(=O)(=O)c2ccc(C(F)(F)F)cc2)c2ccnn2C1` (centres unmarked) [Cpd. No. 045, N-((4-((4-(trifluoromethyl)phenyl)sulfonyl)-4,5,6,7-tetrahydropyrazolo[1,5-a]pyrimidin-6-yl)methyl)acrylamide], with > 20 µM; and `C=CC(=O)NCC1CN(S(=O)(=O)c2ccc(C(F)(F)F)cc2)c2ccnn2C1` (centres unmarked) [Cpd. No. 045-En1, N-((4-((4-(trifluoromethyl)phenyl)sulfonyl)-4,5,6,7-tetrahydropyrazolo[1,5-a]pyrimidin-6-yl)methyl)acrylamide], with 1 to 20 µM.
Still for that read-out and setting: the result for `C=CC(=O)NCC1CN(S(=O)(=O)c2ccc(C(F)(F)F)cc2)c2ccnn2C1` (centres unmarked) [Cpd. No. 045-En2, N-((4-((4-(trifluoromethyl)phenyl)sulfonyl)-4,5,6,7-tetrahydropyrazolo[1,5-a]pyrimidin-6-yl)methyl)acrylamide] reads > 20 µM.

Still in this experiment, the particulars now being: Homo sapiens, HEK-293T, 24 h, Hek293T cells transiently transfected with TEAD-responsive element luciferase reporter, 24 hours incubation.
For `C=CC(=O)NCC1CN(c2ccc(C(F)F)cc2)c2ccnn2C1` (centres unmarked) [Cpd. No. 009, N-((4-(4-(difluoromethyl)phenyl)-4,5,6,7-tetrahydropyrazolo[1,5-a]pyrimidin-6-yl)methyl)acrylamide], the EC50 is < 1 µM.
For `C=CC(=O)NCC1CN(c2ccc(OC(F)(F)F)c(F)c2)c2ccnn2C1` (centres unmarked) [Cpd. No. 018, N-((4-(3-fluoro-4-(trifluoromethoxy)phenyl)-4,5,6,7-tetrahydropyrazolo[1,5-a]pyrimidin-6-yl)methyl)acrylamide], the EC50 is < 1 µM.
Same read-out and setting: the result for `C=CC(=O)NCC1CN(c2ccc(SC(F)(F)F)cc2)c2ccnn2C1` (centres unmarked) [Cpd. No. 020, N-((4-(4-((trifluoromethyl)thio)phenyl)-4,5,6,7-tetrahydropyrazolo[1,5-a]pyrimidin-6-yl)methyl)acrylamide] reads < 1 µM.
Same read-out and setting: the result for `C=CC(=O)NCC1CN(c2cnn(C(F)F)c2)c2ccnn2C1` (centres unmarked) [Cpd. No. 025, N-((4-(1-(difluoromethyl)-1H-pyrazol-4-yl)-4,5,6,7-tetrahydropyrazolo[1,5-a]pyrimidin-6-yl)methyl)acrylamide] reads > 20 µM.
Still for that read-out and setting: the result for `C=CC(=O)NCC1CN(c2ccc(OC(F)(F)F)cc2)c2cc(C)nn2C1` (centres unmarked) [Cpd. No. 030, N-((2-methyl-4-(4-(trifluoromethoxy)phenyl)-4,5,6,7-tetrahydropyrazolo[1,5-a]pyrimidin-6-yl)methyl)acrylamide] reads < 1 µM.
As to `C=CC(=O)NCC1CN(c2ccc(C(F)(F)F)cc2)c2cc(C#N)nn2C1` (centres unmarked) [Cpd. No. 033, N-((2-cyano-4-(4-(trifluoromethyl)phenyl)-4,5,6,7-tetrahydropyrazolo[1,5-a]pyrimidin-6-yl)methyl)acrylamide], the 50% effective concentration (EC50) is < 1 µM.
For `C#Cc1ccc(N2CC(CNC(=O)C=C)Cn3nccc32)cc1` (centres unmarked) [Cpd. No. 036, N-((4-(4-ethynylphenyl)-4,5,6,7-tetrahydropyrazolo[1,5-a]pyrimidin-6-yl)methyl)acrylamide], the EC50 is < 1 µM.
Regarding `C=CC(=O)NCC1CN(C2CCCCC2)c2ccnn2C1` (centres unmarked) [Cpd. No. 037, N-((4-cyclohexyl-4,5,6,7-tetrahydropyrazolo[1,5-a]pyrimidin-6-yl)methyl)acrylamide], the EC50 is < 1 µM.
For the compound `CN(C)C/C=C/C(=O)NCC1CN(c2ccc(C(F)(F)F)cc2)c2ccnn2C1` (centres unmarked) [Cpd. No. 041, (E)-4-(dimethylamino)-N-((4-(4-(trifluoromethyl)phenyl)-4,5,6,7-tetrahydropyrazolo[1,5-a]pyrimidin-6-yl)methyl)but-2-enamide], the EC50 was in the range of 1 to 20 µM.
On the same count and under the same terms, then `N#CCC(=O)NCC1CN(c2ccc(C(F)(F)F)cc2)c2ccnn2C1` (centres unmarked) [Cpd. No. 042, 2-cyano-N-((4-(4-(trifluoromethyl)phenyl)-4,5,6,7-tetrahydropyrazolo[1,5-a]pyrimidin-6-yl)methyl)acetamide], with > 20 µM; and `CC(=O)N(CC#N)CC1CN(c2ccc(C(F)(F)F)cc2)c2ccnn2C1` (centres unmarked) [Cpd. No. 043, N-(cyanomethyl)-N-((4-(4-(trifluoromethyl)phenyl)-4,5,6,7-tetrahydropyrazolo[1,5-a]pyrimidin-6-yl)methyl)acetamide], with > 20 µM.
On the same count and under the same terms, the result for `C#CCNCC1CN(c2ccc(C(F)(F)F)cc2)c2ccnn2C1` (centres unmarked) [Cpd. No. 044, N-((4-(4-(trifluoromethyl)phenyl)-4,5,6,7-tetrahydropyrazolo[1,5-a]pyrimidin-6-yl)methyl)prop-2-yn-1-amine] reads > 20 µM; that for `C=CC(=O)NCC1CN(C(=O)C2CCCCC2)c2ccnn2C1` (centres unmarked) [Cpd. No. 046, N-((4-(cyclohexanecarbonyl)-4,5,6,7-tetrahydropyrazolo[1,5-a]pyrimidin-6-yl)methyl)acrylamide], 1 to 20 µM.
Still for that read-out and setting: the result for `C=CC(=O)NCC1CN(C(=O)c2ccccc2)c2ccnn2C1` (centres unmarked) [Cpd. No. 047, N-((4-benzoyl-4,5,6,7-tetrahydropyrazolo[1,5-a]pyrimidin-6-yl)methyl)acrylamide] reads > 20 µM.
On to `CCC(=O)NCC1CN(Cc2ccc(C(F)(F)F)cc2)c2ccnn2C1` (centres unmarked) [Cpd. No. 050, N-((4-(4-(trifluoro-methyl)benzyl)-4,5,6,7-tetrahydropyrazolo[1,5-a]pyrimidin-6-yl)-methyl)propionamide], for which the EC50 is > 20 µM.
The same measure, in the same setting: then `CS(=O)(=O)NCC1CN(Cc2ccc(C(F)(F)F)cc2)c2ccnn2C1` (centres unmarked) [Cpd. No. 051, N-((4-(4-(trifluoro-methyl)benzyl)-4,5,6,7-tetrahydropyrazolo[1,5-a]pyrimidin-6-yl)-methyl)methanesulfonamide], with > 20 µM; and `CCC(=O)NCC1CN(Cc2cccc(C(F)(F)F)c2)c2ccnn2C1` (centres unmarked) [Cpd. No. 053, N-((4-(3-(trifluoro-methyl)benzyl)-4,5,6,7-tetrahydropyrazolo[1,5-a]pyrimidin-6-yl)-methyl)propionamide], with > 20 µM; and `CS(=O)(=O)NCC1CN(Cc2cccc(C(F)(F)F)c2)c2ccnn2C1` (centres unmarked) [Cpd. No. 054, N-((4-(3-(trifluoro-methyl)benzyl)-4,5,6,7-tetrahydropyrazolo[1,5-a]pyrimidin-6-yl)-methyl)methanesulfonamide], with > 20 µM.
On the same count and under the same terms, the result for `C=CC(=O)NCC1CN(CC2CCCCC2)c2ccnn2C1` (centres unmarked) [Cpd. No. 055, N-((4-(cyclohexylmethyl)-4,5,6,7-tetrahydropyrazolo[1,5-a]pyrimidin-6-yl)-methyl)acrylamide] reads < 1 µM; that for `C=CC(=O)NCC1CN(CC#Cc2ccccc2)c2ccnn2C1` (centres unmarked) [Cpd. No. 056, N-((4-(3-phenylprop-2-yn-1-yl)-4,5,6,7-tetrahydropyrazolo[1,5-a]pyrimidin-6-yl)-methyl)acrylamide], < 1 µM.
Regarding `C#CCN1CC(CNC(=O)C=C)Cn2nccc21` (centres unmarked) [Cpd. No. 057, N-((4-(prop-2-yn-1-yl)-4,5,6,7-tetrahydropyrazolo[1,5-a]pyrimidin-6-yl)-methyl)acrylamide], the EC50 was > 20 µM.
On the same count and under the same terms, then `CCC(=O)NC1CN(c2ccc(C(F)(F)F)cc2)c2ccnn2C1` (centres unmarked) [Cpd. No. 062, N-(4-(4-(trifluoromethyl)phenyl)-4,5,6,7-tetrahydropyrazolo[1,5-a]pyrimidin-6-yl)propionamide], with > 20 µM; and `C=CC(=O)NC1CN(c2ccc(C(F)(F)F)c(F)c2)c2ccnn2C1` (centres unmarked) [Cpd. No. 064, N-(4-(3-fluoro-4-(trifluoromethyl)phenyl)-4,5,6,7-tetrahydropyrazolo[1,5-a]pyrimidin-6-yl)acrylamide], with < 1 µM; and `C=CC(=O)NC1CN(c2ccc(Cl)cc2)c2ccnn2C1` (centres unmarked) [Cpd. No. 066, N-(4-(4-chlorophenyl)-4,5,6,7-tetrahydropyrazolo[1,5-a]pyrimidin-6-yl)acrylamide], with < 1 µM.
As for `CS(=O)(=O)NC1CN(c2ccc(C(F)(F)F)cc2)c2ccnn2C1` (centres unmarked) [Cpd. No. 067, N-(4-(4-(trifluoromethyl)phenyl)-4,5,6,7-tetrahydropyrazolo[1,5-a]pyrimidin-6-yl)methanesulfonamide], the EC50 is > 20 µM.
Consider `CCC(=O)NCC1Cc2c(cnn2C)N(c2ccc(C(F)(F)F)cc2)C1` (centres unmarked) [Cpd. No. 072, N-((1-methyl-4-(4-(trifluoromethyl)phenyl)-4,5,6,7-tetrahydro-1H-pyrazolo[4,3-b]pyridin-6-yl)methyl)propionamide], for which the 50% effective concentration (EC50) is > 20 µM.
